Measurements reported in patent US7704994B2, “Benzazepine derivatives for the treatment of neurological disorders” (Glaxo Group Limited, priority 2002, dated 2010).
“And” between values parts separate entries of the source, which are not always exact repeats. Identical values can stand only once. Like-named read-outs stand apart in the source and are kept apart here.

Target: T1, human histamine H3 receptor (Homo sapiens, UniProt Q9Y5N1)
T1 construct: expressed in transfected cells; host or cells: CHO K1 cells carrying pSwitch, transfected with pGeneH3 and induced with mifepristone; membranes of clone 3H3
T1 sequence (Q9Y5N1 whole entry): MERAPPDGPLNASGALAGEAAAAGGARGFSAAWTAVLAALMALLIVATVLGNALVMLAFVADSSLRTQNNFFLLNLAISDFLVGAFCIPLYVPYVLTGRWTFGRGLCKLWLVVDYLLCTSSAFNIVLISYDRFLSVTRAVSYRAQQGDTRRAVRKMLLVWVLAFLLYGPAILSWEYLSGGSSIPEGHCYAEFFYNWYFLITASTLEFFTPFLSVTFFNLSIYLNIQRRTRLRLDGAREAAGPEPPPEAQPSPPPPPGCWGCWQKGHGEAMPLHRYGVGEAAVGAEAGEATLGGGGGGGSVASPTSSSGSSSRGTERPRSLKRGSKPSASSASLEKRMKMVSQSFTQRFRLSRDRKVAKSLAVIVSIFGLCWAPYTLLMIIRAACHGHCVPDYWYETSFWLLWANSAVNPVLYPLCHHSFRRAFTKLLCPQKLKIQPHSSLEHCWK
Assay: Histamine H3 functional antagonist assay
Format: biochemical
Procedure: A membrane preparation containing histamine H3 receptors may be prepared in accordance with the following procedures:
Ligated DNA was transformed into competent DH5α E. coli host bacterial cells and plated onto Luria Broth (LB) agar containing Zeocin™ (an antibiotic which allows the selection of cells expressing the sh ble gene which is present on pGene and pSwitch) at 50 μg ml^−1. Colonies containing the re-ligated plasmid were identified by restriction analysis. DNA for transfection into mammalian cells was prepared from 250 ml cultures of the host bacterium containing the pGeneH3 plasmid and isolated using a DNA preparation kit (Qiagen Midi-Prep) as per manufacturers guidelines (Qiagen).
CHO K1 cells previously transfected with the pSwitch regulatory plasmid (InVitrogen) were seeded at 2×10e6 cells per T75 flask in Complete Medium, containing Hams F12 (GIBCOBRL, Life Technologies) medium supplemented with 10% v/v dialysed foetal bovine serum, L-glutamine, and hygromycin (100 μg ml^−1), 24 hours prior to use. Plasmid DNA was transfected into the cells using Lipofectamine plus according to the manufacturers guidelines (InVitrogen). 48 hours post transfection cells were placed into complete medium supplemented with 500 μg ml^−1 Zeocin™.
10-14 days post selection 10 nM Mifepristone (InVitrogen), was added to the culture medium to induce the expression of the receptor. […] Approximately 1×10e7 cells were examined for receptor expression by staining with a rabbit polyclonal antibody, 4a, raised against the N-terminal domain of the histamine H3 receptor, incubated on ice for 60 minutes, followed by two washes in sorting medium. […] Following two further washes with Sorting Medium, cells were filtered through a 50 μm Filcon™ (BD Biosciences) and then analysed on a FACS Vantage SE Flow Cytometer fitted with an Automatic Cell Deposition Unit. […] Positively stained cells were sorted as single cells into 96-well plates, containing Complete Medium containing 500 μg ml^−1 Zeocin™ and allowed to expand before reanalysis for receptor expression via antibody and ligand binding studies.
All steps of the protocol are carried out at 4° C. and with pre-cooled reagents. […] The cells are then homogenised by 2×15 second bursts in a 1 litre glass Waring blender, followed by centrifugation at 500 g for 20 minutes. The supernatant is then spun at 48,000 g for 30 minutes. […]
The plate is then incubated on a shaker at room temperature for 30 minutes followed by centrifugation for 5 minutes at 1500 rpm. The plate is read between 3 and 6 hours after completion of centrifuge run in a Wallac Microbeta counter on a 1 minute normalised tritium count protocol. Data is analysed using a 4-parameter logistic equation. […]

[1] = membranes of CHO K1 cells expressing human histamine H3, [35S]GTPγS SPA, histamine 0.3 μM, read-out: antagonism (pKb) (converted)

Compound: c1ccc(COc2ccc3c(c2)CCN(C2CCC2)CC3)cc1 [Example 1, 7-Benzyloxy-3-cyclobutyl-2,3,4,5-tetrahydro-1H-benzo[d]azepine]
- Kb: 0.0316 to 1 nM

Compound: O=C(N1CCOCC1)N1CCC(Oc2ccc3c(c2)CCN(C2CCC2)CC3)CC1 [Example 52]
- Kb [1]: 0.0316 to 1 nM

Compound: CNC(=O)c1ccc(Oc2ccc3c(c2)CCN(C2CCC2)CC3)nc1 [Example 121, 6-(3-Cyclobutyl-2,3,4,5-tetrahydro-1H-benzo[d]azepin-7-yloxy)-N-methyl-nicotinamide]
- Kb [1]: 0.0316 to 1 nM and < 0.316 nM

Compound: O=C1CCCN1c1ccc(Oc2ccc3c(c2)CCN(C2CCC2)CC3)nc1 [Example 217, 1-{6-[(3-Cyclobutyl-2,3,4,5-tetrahydro-1H-3-benzazepin-7-yl)oxy]-3-pyridinyl}-2-pyrrolidinone]
- Kb [1]: 0.0316 to 1 nM
